Results taken from patent publication US12187705B2, “Heteroaryl-triazole and heteroaryl-tetrazole compounds as pesticides” (Bayer Aktiengesellschaft, priority 2018, dated 2025).

Legend:
Type in all cases: in vivo
Phaedon cochleariae = Phaedon cochleariae spray test; conditions: foliar, 168 h, Chinese cabbage leaf disks, after 7 days
Experimental: Phaedon cochleariae—Spray Test
(§1) To produce a suitable preparation of active compound, 1 part by weight of active compound is mixed with the stated amount of solvents and is diluted with water, containing an emulsifier concentration of 1000 ppm, to the desired concentration. Further test concentrations are prepared by dilution with emulsifier containing water.
Chinese cabbage (Brassica pekinensis) leaf disks are sprayed with a preparation of the active ingredient of the desired concentration. Once dry, the leaf disks are infested with mustard beetle larvae (Phaedon cochleariae).
After 7 days mortality in % is determined. 100% means all beetle larvae have been killed and 0% means none of the beetle larvae have been killed.

Diabrotica balteata = Diabrotica balteata spray test; conditions: 160 μg/well, wheat seeds, after 7 days; for pest or weed control at 160 µg/disc, 160 µg/well: Diabrotica balteata, 168 h, read-out: efficacy (seedlings grown)
In short: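 Wheat seeds germinated 1 day on agar were sprayed with compound diluted in water with 1000 ppm emulsifier, then infested with 10-20 Diabrotica balteata larvae. Efficacy in % scored after 7 days: 100% = seedlings grown as untreated, uninfected control; 0% = no seedlings grown.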

Ctenocephalides felis [1] = assay: Ctenocephalides felis oral test; conditions: Ctenocephalides felis, in Bos taurus, po, 48 h
In short: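 About 20 adult unfed fleas fed through parafilm on cattle blood containing compound (DMSO concentrate diluted in blood); blood held at 37° C., fleas at room temperature. Mortality in % scored after 2 days (100% = all killed).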

Myzus persicae [2] = assay: Myzus persicae oral test; conditions: 120 h
In short: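 Feeding test: compound diluted in water was combined with IPL41 insect medium (33%+15% sugar) under a parafilm seal. A mixed population of green peach aphids fed through the membrane. Mortality (%) was scored after 5 days.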

Spodoptera frugiperda = Spodoptera frugiperda spray test; conditions: in Zea mays, 168 h
In short: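 Maize leaf sections were sprayed with compound formulated in solvent and diluted in water containing 1000 ppm emulsifier, then infested with fall armyworm larvae after drying. Percent mortality was scored after 7 days (100% = all caterpillars dead, 0% = none).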

Myzus persicae [3] = assay: Myzus persicae spray test; conditions: in Brassica rapa, foliar, 120 h
Experimental: Myzus persicae—Spray Test
as §1
Chinese cabbage (Brassica pekinensis) leaf disks infected with all instars of the green peach aphid (Myzus persicae), are sprayed with a preparation of the active ingredient of the desired concentration.
After 5 days mortality in % is determined. 100% means all aphids have been killed and 0% means none of the aphids have been killed.

[4] = test system: Anopheles funestus strain FUMOZ-R; assay: Anopheles funestus test (ANPHFU surface treatment & contact assay); conditions: 24 hours after contact, read-out: efficacy (mortality); for mortality at 4 mg/m2: surface concentration 4 mg/m^2, 30 minutes exposure; for mortality at 20 mg/m2: surface concentration 20 mg/m^2, 30 minutes exposure
Experimental: Anopheles funestus Test (ANPHFU Surface Treatment & Contact Assay)
(§2) Solvent: Aceton+2000 ppm rapeseed oil methyl ester (RME)
In order to produce a sufficient, active ingredient containing solution it is necessary to solve the test-compound in the solvent-mix (Acetone at 2 mg/ml/RME 2000 ppm). This solution is pipetted onto a glazed tile and after evaporation of the Acetone, adult mosquitoes of the species Anopheles funestus strain FUMOZ-R (Hunt et al., Med Vet Entomol. 2005 September; 19(3):271-5) are placed onto the dried surface. The exposure time is 30 minutes.
(§3) Mortality in percent (%) is determined 24 hours after contact to the treated surface. 100% mortality means that all test-insects are dead, whereas 0% means that not a single insect died.

Nilaparvata lugens = Nilaparvata lugens spray test; conditions: Nilaparvata lugens, in Oryza sativa, 96 h
In short: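 Rice plants sprayed with compound diluted in water containing 1000 ppm emulsifier, then infested with brown planthopper. Mortality (%) scored after 4 days, 100% meaning all insects killed.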

[5] = test system: Aedes aegypti strain MONHEIM; assay: Aedes aegypti test (AEDSAE surface treatment & contact assay); conditions: 24 hours after contact, read-out: efficacy (mortality); for mortality at 4 mg/m2: surface concentration 4 mg/m^2, 30 minutes exposure; for mortality at 20 mg/m2: surface concentration 20 mg/m^2, 30 minutes exposure
In short: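 Compound dissolved in acetone (2 mg/ml) with 2000 ppm rapeseed oil methyl ester and dried onto a glazed tile. Adult mosquitoes held on the treated surface for 30 minutes exposure. Percent mortality scored 24 hours after contact.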

Nezara viridula = Nezara viridula spray test; conditions: in Hordeum vulgare, 96 h
In short: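 Barley plants infested with stink bug larvae were sprayed with compound diluted in water containing 1000 ppm emulsifier. Mortality (%) was scored after 4 days, 100% meaning all bugs killed.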

[6] = test system: Culex quinquefasciatus strain P00; assay: Culex quinquefasciatus test (CULXFA surface treatment & contact assay); conditions: 24 hours after contact, read-out: efficacy (mortality); for mortality at 4 mg/m2: surface concentration 4 mg/m^2, 30 minutes exposure; for mortality at 20 mg/m2: surface concentration 20 mg/m^2, 30 minutes exposure
In short: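 Compound dissolved in acetone (2 mg/ml) with 2000 ppm rapeseed oil methyl ester, applied to glazed tile and dried. Adult strain P00 mosquitoes exposed to the surface for 30 minutes. Percent mortality scored 24 hours after contact.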

[7] = test system: Musca domestica strain WHO-N; assay: Musca domestica test (MUSCDO surface treatment & contact assay); conditions: 24 hours after contact, read-out: efficacy (mortality); for mortality at 20 mg/m2: surface concentration 20 mg/m^2, 30 minutes exposure
Experimental: Musca domestica Test (MUSCDO Surface Treatment & Contact Assay)
as §2
In order to produce a sufficient, active ingredient containing solution it is necessary to solve the test-compound in the solvent-mix (Acetone at 2 mg/ml/RME 2000 ppm). This solution is pipetted onto a glazed tile and after evaporation of the Acetone, adult flies of the species Musca domestica strain WHO-N are placed onto the dried surface. The exposure time is 30 minutes.
as §3

Rhipicephalus sanguineus = Rhipicephalus sanguineus in-vitro contact test with adult brown dog ticks; conditions: 5 μg/cm^2 (=500 g/ha), after 48 hours
Experimental: Rhipicephalus sanguineus—In-Vitro Contact Test with Adult Brown Dog Ticks
9 mg compound is solved in 1 ml acetone and diluted with acetone to the desired concentration. 250 μl of the test solution is filled in 25 ml glass test tubes and homogeneously distributed on the inner walls by rotation and tilting on a shaking device (2 h at 30 rpm). With a compound concentration of 900 ppm, an inner surface of 44.7 cm^2 and a homogeneous distribution, a dose of 5 μg/cm^2 is achieved.
After the solvent has evaporated, each test tube is filled with 5-10 adult brown dog ticks (Rhipicephalus sanguineus), closed with a perforated lid and incubated in a lying position at room temperature and relative humidity. After 48 hours efficacy is determined. The ticks are patted on the ground of the tubes and are incubated on a heating plate at 45-50° C. for at most 5 minutes. Immotile or uncoordinated moving ticks, which are not able to escape the heat by climbing upwards, are marked as dead or moribund.
An efficacy of 100% means all ticks are dead or moribund; 0% means no ticks are dead or moribund.

Boophilus microplus = Boophilus microplus injection test; conditions: 20 μg/animal, egg deposition after 7 days; for pest or weed control at 0.02 mg: Rhipicephalus microplus, 168 h, read-out: efficacy (infertile eggs)
In short: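 Engorged adult female ticks, five per dose, received 1 μl of compound in DMSO injected into the abdomen and were kept in a climate chamber. Fertile egg deposition was checked after 7 days, with eggs of unclear fertility held until hatching at about 42 days. Efficacy 100% = all eggs infertile, 0% = all fertile.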

Ctenocephalides felis [8] = assay: Ctenocephalides felis in-vitro contact test adult cat flea; conditions: 5 μg/cm^2 (=500 g/ha), after 48 hours; for pest or weed control at 5 µg/cm2, 5 µg/cm2: Ctenocephalides felis, read-out: efficacy (fleas dead or moribund)
In short: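 Compound in acetone was coated on glass tube walls, giving 5 μg/cm^2 at 900 ppm. 5-10 adult cat fleas were held at room temperature for 48 h, then heat-challenged at 45-50° C. Fleas immotile or uncoordinated were scored dead/moribund, expressed as % efficacy.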

Row | SMILES | mortality at 500 g/ha (Phaedon cochleariae) [%] | pest or weed control at 160 µg/disc, 160 µg/well (Diabrotica balteata) [%] | mortality at 100 ppm (Ctenocephalides felis [1]) [%] | mortality at 20 ppm (Myzus persicae [2]) [%] | mortality at 500 g/ha (Spodoptera frugiperda) [%] | mortality at 500 g/ha (Nilaparvata lugens) [%] | mortality at 20 mg/m2 [5] [%] | mortality at 500 g/ha (Nezara viridula) [%] | pest or weed control at 0.02 mg (Boophilus microplus) [%] | pest or weed control at 5 µg/cm2, 5 µg/cm2 (Ctenocephalides felis [8]) [%] | other results
1 | CC(c1ncnn1-c1ncccn1)N(CC1CC1)C(=O)c1c(Cl)c(C(F)(F)F)nn1C (stereo not drawn) [Example I-026] | 100 | 100 | – | – | – | – | – | – | – | – | –
2 | CC(c1ncnn1-c1ncccn1)N(CC1CC1)C(=O)c1cc(-c2ccc(F)cc2)cc(C(F)(F)F)c1 (stereo not drawn) [Example I-012] | 100 | 100 | 100 | 100 | 100 | – | – | – | – | – | –
3 | C[C@@H](NC(=O)c1cc(C(F)(F)F)n(C)n1)c1ncnn1-c1ncccn1 [Example I-100] | – | 100 | – | – | 100 | 100 | 90 to 100 | 100 | – | – | mortality at 500 g/ha (Myzus persicae [3]): 90%; mortality at 4 mg/m2 [4]: 85 to 100%; mortality at 20 mg/m2 [4]: 85 to 100%; mortality at 4 mg/m2 [5]: 80 to 100%; mortality at 4 mg/m2 [6]: 80 to 100%; mortality at 20 mg/m2 [6]: 80 to 100%; mortality at 4 mg/m2 ([7]; surface concentration 4 mg/m^2, 30 minutes exposure): 80 to 100%; mortality at 20 mg/m2 [7]: 80 to 100%
4 | CC(c1ncnn1-c1ncccn1)N(CC1CC1)C(=O)c1cc(Cl)cc(Cl)c1Cl (stereo not drawn) [Example I-009] | 100 | 100 | 100 | 100 | 100 | – | – | – | – | – | mortality at 4 ppm (Myzus persicae [2]): 100%
5 | CC(c1ncnn1-c1ncccn1)N(CC1CC1)C(=O)c1cccc(Cl)c1Cl (stereo not drawn) [Example I-016] | 100 | 100 | – | – | – | – | – | 100 | – | – | –
6 | CC(c1ncnn1-c1ncccn1)N(CC1CC1)C(=O)c1csc(Cl)c1 (stereo not drawn) [Example I-021] | – | – | 100 | – | – | – | – | – | 80 | 100 | pest or weed control at 5 µg/cm2, 5 µg/cm2 (Rhipicephalus sanguineus; Rhipicephalus sanguineus, read-out: efficacy (ticks dead or moribund)): 80%
7 | CC(c1ncnn1-c1ncccn1)N(CC1CC1)C(=O)c1cc(C2CC2)on1 (stereo not drawn) [Example I-028] | 100 | 100 | 100 | – | – | – | – | – | – | – | –
8 | CC(c1ncnn1-c1ncccn1)N(CC1CC1)C(=O)c1cc(Cl)c(Cl)s1 (stereo not drawn) [Example I-024] | 100 | 100 | 100 | 100 | – | 100 | 90 to 100 | – | 100 | 100 | mortality at 4 mg/m2 [4]: 85 to 100%; mortality at 20 mg/m2 [4]: 85 to 100%; mortality at 4 ppm (Myzus persicae [2]): 100%
9 | CC(c1ncnn1-c1ncccn1)N(CC1CC1)C(=O)c1cc(C(F)(F)F)n(C)n1 (stereo not drawn) [Example I-025] | 83 | 100 | 100 | 100 | – | 100 | 90 to 100 | 100 | 100 | 100 | mortality at 4 mg/m2 [4]: 85 to 100%; mortality at 20 mg/m2 [4]: 85 to 100%; mortality at 20 mg/m2 [6]: 80 to 100%; mortality at 20 mg/m2 [7]: 80 to 100%
10 | CC(c1ncnn1-c1ncccn1)N(CC1CC1)C(=O)c1cc(Cl)cc(S(=O)(=O)C(F)(F)F)c1 (stereo not drawn) [Example I-019] | 100 | 100 | 100 | 100 | 100 | 100 | 90 to 100 | 100 | 100 | 100 | mortality at 4 ppm (Myzus persicae [2]): 100%; mortality at 4 mg/m2 [5]: 80 to 100%; mortality at 4 mg/m2 [6]: 80 to 100%; mortality at 20 mg/m2 [6]: 80 to 100%; mortality at 20 mg/m2 [7]: 80 to 100%
11 | CC(NC(=O)c1cc(Cl)cc(S(C)(=O)=O)c1)c1ncnn1-c1ncccn1 (stereo not drawn) [Example I-037] | – | – | – | – | – | – | – | – | – | – | efficacy (ticks dead or moribund) (Rhipicephalus sanguineus): 80%; efficacy (infertile eggs) (Boophilus microplus): 100%; efficacy (seedlings grown) (Diabrotica balteata): 100%; efficacy (fleas dead or moribund) (Ctenocephalides felis [8]): 100%
12 | CC(c1ncnn1-c1ncccn1)N(CC1CC1)C(=O)c1cc(-c2ccccc2)cc(C(F)(F)F)c1 (stereo not drawn) [Example I-010] | 100 | – | 100 | – | – | – | – | – | – | – | –
